# Assay results taken from PMC8000084, “Peptide Dendrimers with Non-Symmetric Bola Structure Exert Long Term Effect on Glioblastoma and Neuroblastoma Cell Lines” (Biomolecules, 2021).
# Key:
# [1] = 5.5 μM; cited from earlier work
# Protocol: The results of DPPH and ABTS tests for the (+)10-charged 16, 18, 20, 22, 24, and 26 bola dendrimers at three concentrations (3.78, 7.69, and 15.38 μM) are shown in Figure 5, whereas results of FRAP and CUPRAC tests are shown in Figure 6. Data include also two neutral derivatives 19 and 25 for the PABA and PAS series, respectively. Considering TEAC values, dendrimers show different level of scavenging capacity in both tests, being better scavengers of radical cations than single electron bearing neutral radicals. The highest cationic radical scavenging ability in ABTS test was found for […] ...
# [2] = test system: rat primary cerebellar granule cells (CGC); format: cell-based; conditions: 5 μM, 30 min exposure in Locke 25, PI staining 24 h later; Figure 3
# Protocol: Primary CGC cultures were prepared from seven-day-old Wistar rats of both sexes as previously described. Procedures using rat pups were performed in accordance with international standards of animal care guidelines and were approved by the Local Care of Experimental Animals Committee. The culture was incubated in growth basal Eagle’s medium (Gibco, Thermo Fisher Scientific, Grand Island, NY, USA), supplemented with 10% fetal calf serum, 25 mM KCl, 4 mM glutamine, penicillin (50 U/mL), and streptomycin ([…]) (Sigma-Aldrich, Poznan, Poland). The density of the cell suspension seeded on the 24-well plates, coated with poly-L-lysine, was 1 × 10^6 cells per well. […]
# Stock solutions were prepared by dissolving dendrimers in dimethylsulfoxide (DMSO) (Sigma-Aldrich, Poznan, Poland), and subsequent dilutions were made in cell medium. The effect of the dendrimers on CGC viability was assessed 24 h after a 30 min exposure of the cultures to the tested compounds using propidium iodide (PI) staining. […] Then, the cells were fixed with 80% methanol, stained with PI (0.5 µg/mL), and viable and dead neurons were counted using an Axiovert fluorescence microscope (Carl Zeiss AG, Germany). The viability of the neurons was determined as percentages of live cells in proportion to all cells.
# [3] = Cupric reducing antioxidant capacity (CUPRAC)
# Protocol: The CUPRAC method was performed according to procedure described by Apak et al. with small modifications, which was necessary to correlate this method to other used assays. CUPRAC working solution was prepared freshly each time. The stock solution including 0.96 mL ammonium acetate buffer (1 M, pH 7), 0.96 mL 7.5 mM neocuproine solution in MeOH, and 0.96 mL of 10 mM CuCl2 in water was kept away from light. Then, 240 μL dendrimer, Trolox, or solvent (blank sample) standard solution was added to CUPRAC stock solution, and after 25 min, absorbance at 450 nm was recorded. Results were expressed as μM Trolox L^−1. All determinations were carried out in triplicate.
# [4] = Ferric reducing antioxidant power (FRAP); conditions: pH 3.6, 593 nm after 15 min; Figure 6
# Protocol: The FRAP assay was performed according to previously described method with some modifications. FRAP working solution was prepared freshly each time. The stock solution included 2.40 mL acetate buffer (300mM, pH 3.6), 0.24 mL 10 mM TPTZ solution in 40 mM HCl, and 0.24 mL of 20 mM FeCl3 × 6H2O in water. The mixture was kept away from light and warmed at 37 °C before using. Then, 240 μL sample Troloxor solvent (blank sample) standard solution was added to FRAP stock solution. The absorbance was measured at 593 nm after 15 min. Final concentration of methanolic solutions of the studied dendrimers were in range 0–24 μM and Trolox® solutions from 0 to 50 μM.All determinations were carried out in triplicate.
smiles,measurement,setting,value
O=C(O)/C=C/c1ccc(O)c(O)c1 [caffeic acid],Trolox equivalence in DPPH test,[1],6–7
Nc1ccc(S(=O)(=O)NCCCCCOc2cc(OCCNS(=O)(=O)c3ccc(N)cc3)cc(C(=O)NCCNC(=O)[C@H](Cc3c[nH]c4ccccc34)NC(=O)[C@H](CCCCNC(=O)c3cc(OCCNC(=O)[C@@H](N)CCCCNC(=O)[C@@H](N)Cc4c[nH]c5ccccc45)cc(OCCNC(=O)[C@@H](N)CCCCNC(=O)[C@@H](N)Cc4c[nH]c5ccccc45)c3)NC(=O)c3cc(OCCNC(=O)[C@@H](N)CCCCNC(=O)[C@@H](N)Cc4c[nH]c5ccccc45)cc(OCCNC(=O)[C@@H](N)CCCCNC(=O)[C@@H](N)Cc4c[nH]c5ccccc45)c3)c2)cc1 [compound 26],viable CGC cells conserved,[2],55–85%
same,enhancement of antioxidant power in transition between FRAP/CUPRAC model,[3]; 3.78 and 7.69 μM,~11 fold
Nc1ccc(S(=O)(=O)O)cc1 [p-aminobenzenesulfonic acid],redox potential / reducing capacity in CUPRAC test (in words),"[3]; pH 7, 450 nm after 25 min, Figure 6",insignificant
same,redox potential / reducing capacity in FRAP test (in words),[4],insignificant
